From patent publication US20230303540A1 (Merck Sharp & Dohme LLC, priority 2020, published 2023)

What follows are compounds tested against GST-tagged truncated human mutant G2019S LRRK2 (Homo sapiens, UniProt Q5S007, G2019S) (assay: LRRK2 G2019S Km ATP LanthaScreen assay). Conditions: 134 μM ATP (Km ATP), LRRKtide substrate, mean IC50 values; read-out: LRRK2 pIC50 (converted).
Format: biochemical
Summary of the method: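 LanthaScreen TR-FRET read with fluorescein-LRRKtide and 134 μM ATP (Km) in Tris pH 8.5/10 mM MgCl2 buffer. The enzyme was preincubated 15 min with compound at room temperature, and the reaction ran 90 min at ambient temperature. Stopped with EDTA plus Tb anti-phospho-LRRKtide antibody; the 520/495 nm ratio gave a 4-parameter logistic IC50, mean of several runs.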

Q: For `OC1COCC12CCN(c1cc3nc(Nc4cnn(C5CC5(F)F)c4Cl)ncc3cc1Cl)CC2` (single isomer, unassigned) [Ex-3.56], which IC50 is on record?
A: The IC50 was 3.56 nM.

Q: How did the IC50 turn out when `CC1(n2ncc(Nc3ncc4cc(Cl)c(N5CCC(N6CC(F)(F)C6)CC5)cc4n3)c2Cl)CC1` [Ex-4.32, 6-chloro-N-[5-chloro-1-(1-methylcyclopropyl)-1H-pyrazol-4-yl]-7-[4-(3,3-difluoroazetidin-1-yl)piperidin-1-yl]quinazolin-2-amine] was run?
A: The IC50 was 2.02 nM.

Q: Which IC50 does the source give for `Cn1cc(Nc2ncc3ccc(N4C(=O)C5CCC4C5)cc3n2)c(C(F)(F)F)n1` (stereo not shown) [Ex-7.9, 2-(2-{[1-methyl-3-(trifluoromethyl)-1H-pyrazol-4-yl]amino}quinazolin-7-yl)-2-azabicyclo[2.2.1]heptan-3-one] here?
A: Its IC50 is 34 nM.

Q: How did the IC50 turn out when `Cc1cc2cnc(Nc3cnn(C4(C)CC4)c3Cl)nc2cc1N1CCN(C2(C)COC2)CC1` [Ex-5.9, N-[5-chloro-1-(1-methylcyclopropyl)-1H-pyrazol-4-yl]-6-methyl-7-[4-(3-methyloxetan-3-yl)piperazin-1-yl]quinazolin-2-amine] was run?
A: The IC50 was 0.64 nM.

Q: How did the IC50 turn out when `Cc1c(Nc2ncc3cc(Cl)c(N4CCN(C5(C)COCC5O)CC4)cc3n2)cnn1C1CC1` (single isomer, unassigned) [Ex-6.18, (3S,4S) or (3R,4R) 4-(4-{6-chloro-2-[(1-cyclopropyl-5-methyl-1H-pyrazol-4-yl)amino]quinazolin-7-yl}piperazin-1-yl)-4-methyloxolan-3-ol] was run?
A: The IC50 was 0.322 nM.

Q: With `C[C@@]1(O)COCC12CCN(c1cc3nc(Nc4cnn(C5CC5)c4Cl)ncc3cc1Cl)CC2` [Ex-3.5] as the compound, how does the IC50 read?
A: Its IC50 is 1.54 nM.

Q: Which IC50 does the source give for `CC1(N2CCN(c3nc4nc(Nc5cnn(CC(F)F)c5Cl)ncc4cc3Cl)CC2)COC1` [Ex-15.2, 6-chloro-N-[5-chloro-1-(2,2-difluoroethyl)-1H-pyrazol-4-yl]-7-[4-(3-methyloxetan-3-yl)piperazin-1-yl]pyrido[2,3-d]pyrimidin-2-amine] here?
A: The IC50 was 60.8 nM.

Q: How did the IC50 turn out when `CC(C)n1ncc(Nc2ncc3cc(Cl)c(N4CCN(C5(C)COCC5O)CC4)cc3n2)c1C(F)F` (single isomer, unassigned) [Ex-6.50, (3S,4S) or (3R,4R) 4-(4-(6-chloro-2-((5-(difluoromethyl)-1-isopropyl-1H-pyrazol-4-yl)amino)quinazolin-7-yl)piperazin-1-yl)-4-methyltetrahydrofuran-3-ol] was run?
A: Its IC50 is 0.08 nM.

Q: Which IC50 does the source give for `CC(C)(O)Cn1cc(Nc2ncc3cc(Cl)c(N4C[C@H]5CC[C@@H](C4)[C@@]5(C)O)cc3n2)cn1` [Ex-3.32, (8-syn)-3-(6-chloro-2-{[1-(2-hydroxy-2-methylpropyl)-1H-pyrazol-4-yl]amino}quinazolin-7-yl)-8-methyl-3-azabicyclo[3.2.1]octan-8-ol] here?
A: The IC50 was 0.393 nM.

Q: How did the IC50 turn out when `O[C@@H]1COCC12CCN(c1cc3nc(Nc4cnn(C5CC5)c4Cl)ncc3cc1Cl)CC2` [Ex-3.3] was run?
A: The IC50 was 17.2 nM.

Q: How did the IC50 turn out when `CC1(N2CCN(c3cc4nc(Nc5cnn(C(C)(C)C)c5Cl)ncc4cc3Cl)CC2)COC1` [Ex-4.31, N-(1-tert-butyl-5-chloro-1H-pyrazol-4-yl)-6-chloro-7-[4-(3-methyloxetan-3-yl)piperazin-1-yl]quinazolin-2-amine] was run?
A: The IC50 was 1.01 nM.

Q: How did the IC50 turn out when `CC1(N2CCN(c3cc4nc(Nc5cnn(C6CC6(F)F)c5Cl)ncc4cc3Cl)CC2)COCC1O` (single isomer, unassigned) [Ex-6.2, (3S,4S) or (3R,4R) 4-(4-(6-chloro-2-((5-chloro-1-(2,2-(R) or (S)difluorocyclopropyl)-1H-pyrazol-4-yl)amino)quinazolin-7-yl)piperazin-1-yl)-4-methyltetrahydrofuran-3-ol] was run?
A: Its IC50 is 0.08 nM.

Q: With `C[C@]1(O)COCC12CCN(c1cc3nc(Nc4cnn(C5CC5)c4Cl)ncc3cc1Cl)CC2` [Ex-3.4] as the compound, how does the IC50 read?
A: Its IC50 is 19.9 nM.

Q: Which IC50 does the source give for `CC(C)(C)n1ncc(Nc2ncc3cc(Cl)c(N4CCC(N5CC(F)(F)C5)CC4)cc3n2)c1Cl` [Ex-4.33, N-(1-tert-butyl-5-chloro-1H-pyrazol-4-yl)-6-chloro-7-[4-(3,3-difluoroazetidin-1-yl)piperidin-1-yl]quinazolin-2-amine] here?
A: Its IC50 is 4.75 nM.

Q: Which IC50 does the source give for `Cc1cc2cnc(Nc3cnn(C4CC4)c3C)nc2cc1N1CCN(C2COCC2O)CC1` (single isomer, unassigned) [Ex-5.7, (3S,4S) or (3R,4R) 4-(4-{2-[(1-cyclopropyl-5-methyl-1H-pyrazol-4-yl)amino]-6-methylquinazolin-7-yl}piperazin-1-yl)oxolan-3-ol] here?
A: Its IC50 is 0.197 nM.

Q: Which IC50 does the source give for `COCC12CC(n3cc(Nc4ncc5cc(Cl)c(N6CCC7(CCCO7)CC6)cc5n4)cn3)(C1)C2` [Ex-3.34, 6-chloro-N-{1-[3-(methoxymethyl)bicyclo[1.1.1]pentan-1-yl]-1H-pyrazol-4-yl}-7-(1-oxa-8-azaspiro [4.5]decan-8-yl)quinazolin-2-amine] here?
A: Its IC50 is 0.594 nM.

Q: Which IC50 does the source give for `Cn1nc(Cl)cc1Nc1ncc2cc(Cl)c(N3CCN([C@@]4(C)COC[C@H]4O)CC3)cc2n1` (single isomer, unassigned) here?
A: The IC50 was 5.97 nM.

Q: `O=C1C2CCC(C2)N1c1ccc2cnc(Nc3ccn(CC(F)(F)F)n3)nc2c1` (stereo not shown) [Ex-4.8, 2-(2-{[1-(2,2,2-trifluoroethyl)-1H-pyrazol-3-yl]amino}quinazolin-7-yl)-2-azabicyclo[2.2.1]heptan-3-one] was tested. Which IC50 did it give?
A: The IC50 was 8.95 nM.

Q: With `Cc1cc2cnc(Nc3cnn(C4CC4)c3C)nc2cc1N1CCN(C2(C)COC2)CC1` [Ex-5.11, N-(1-cyclopropyl-5-methyl-1H-pyrazol-4-yl)-6-methyl-7-[4-(3-methyloxetan-3-yl)piperazin-1-yl]quinazolin-2-amine] as the compound, how does the IC50 read?
A: The IC50 was 2.82 nM.

Q: How did the IC50 turn out when `Cc1cc2cnc(Nc3cnn(C45CC(C4)C5)c3Cl)nc2cc1N1CCN(C2COCC2O)CC1` (single isomer, unassigned) [Ex-13.3, (3S,4S) or (3R, 4R)-4-(4-(2-((1-(bicyclo[1.1.1]pentan-1-yl)-5-chloro-1H-pyrazol-4-yl)amino)-6-methylquinazolin-7-yl)piperazin-1-yl)tetrahydrofuran-3-ol] was run?
A: The IC50 was 6.98 nM.

Q: How did the IC50 turn out when `CC(C)(O)Cn1cc(Nc2ncc3cc(Cl)c(N4CCN(C5(C)COC5)CC4)cc3n2)cn1` [Ex-4.59, 1-[4-({6-chloro-7-[4-(3-methyloxetan-3-yl)piperazin-1-yl]quinazolin-2-yl}amino)-1H-pyrazol-1-yl]-2-methylpropan-2-ol] was run?
A: The IC50 was 5.26 nM.

Q: How did the IC50 turn out when `OC1COCC1N1CCN(c2cc3nc(Nc4cnn(C(F)F)c4)ncc3cc2Cl)CC1` (single isomer, unassigned) [Ex-6.47, (3S,4S) or (3R,4R) 4-(4-(6-chloro-2-((1-(difluoromethyl)-1H-pyrazol-4-yl)amino)quinazolin-7-yl)piperazin-1-yl)tetrahydrofuran-3-ol] was run?
A: Its IC50 is 0.85 nM.

Q: With `C[C@@]1(N2CCN(c3cc4nc(Nc5cnn(C6CC6)c5C(F)F)ncc4cc3Cl)CC2)COC[C@@H]1O` [Ex-6.56, (3R,4R)-4-(4-(6-chloro-2-((1-cyclopropyl-5-(difluoromethyl)-1H-pyrazol-4-yl)amino)quinazolin-7-yl)piperazin-1-yl)-4-methyltetrahydrofuran-3-ol] as the compound, how does the IC50 read?
A: The IC50 was 0.08 nM.

Q: How did the IC50 turn out when `Cc1c(Nc2ncc3cc(Cl)c(N4CCN(C5COCC5O)CC4)cc3n2)cnn1CC(F)(F)F` (single isomer, unassigned) [Ex-6.32, (3S,4S) or (3R,4R) 4-[4-(6-chloro-2-{[5-methyl-1-(2,2,2-trifluoroethyl)-1H-pyrazol-4-yl]amino}quinazolin-7-yl)piperazin-1-yl]oxolan-3-ol] was run?
A: The IC50 was 0.608 nM.

Q: How did the IC50 turn out when `CC(C)(O)CN1CCN(c2cc3nc(Nc4cnn(C5CC5)c4Cl)ncc3cc2Cl)CC1` [Ex-1.31, 1-(4-{6-chloro-2-[(5-chloro-1-cyclopropyl-1H-pyrazol-4-yl)amino]quinazolin-7-yl}piperazin-1-yl)-2-methylpropan-2-ol] was run?
A: The IC50 was 10.1 nM.
